Bounds are passed on as bounds.

The experiment deals with T1, ALK (baculovirus expressed human ALK kinase domain F1098-K1410) (Homo sapiens, UniProt Q9UM73).
T1 construct: human ALK kinase domain F1098-K1410; made in house
T1 sequence (Q9UM73 1098-1410): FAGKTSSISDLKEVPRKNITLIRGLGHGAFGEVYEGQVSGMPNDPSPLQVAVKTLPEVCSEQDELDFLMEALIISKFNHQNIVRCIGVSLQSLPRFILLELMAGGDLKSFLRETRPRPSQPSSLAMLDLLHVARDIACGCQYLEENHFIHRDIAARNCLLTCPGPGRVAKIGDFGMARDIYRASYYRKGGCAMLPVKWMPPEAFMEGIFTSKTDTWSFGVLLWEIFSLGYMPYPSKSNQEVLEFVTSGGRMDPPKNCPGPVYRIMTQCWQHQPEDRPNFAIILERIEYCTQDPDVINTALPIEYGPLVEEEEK
Put plainly: biochemical. As to conditions: 1 μM ATP, 4 μM poly-AEKY, 12 nM ALK, 2 hours at ambient temperature; read-out: ALK IC50. In a few lines:
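Baculovirus-expressed human ALK kinase domain (F1098-K1410) was run in a luciferase-coupled chemiluminescent format, with ATP near its KM. After 2 h at ambient temperature, remaining ATP was read by luciferase-luciferin luminescence. IC50 came from 10-point dose-response curves fitted to a four-parameter equation with Hill slope.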
Take `O=C(COc1ccc(OC(F)(F)F)cc1)NC(Cc1ccccc1)c1nc(C(=O)NCCc2cccc(Cl)c2)cs1` (stereo not shown) [Entry 131, N-[2-(3-chlorophenyl)ethyl]-2-(2-phenyl-1-{[({4-[(trifluoromethyl)oxy]phenyl}oxy)acetyl]amino}ethyl)-1,3-thiazole-4-carboxamide]: the IC50 lay within 50 to 500 nM.

Turning to `COCCNC(=O)c1csc(CNC(=O)COc2ccc(OC(F)(F)F)cc2)n1` [Entry 287, N-[2-(methyloxy)ethyl]-2-({[({4-[(trifluoromethyl)oxy]phenyl}oxy)acetyl]amino}methyl)-1,3-thiazole-4-carboxamide], the 50% inhibitory concentration (IC50) lay in the range of 500 to 2000 nM. Take `Cc1ccccc1CCNC(=O)c1csc(CNC(=O)COc2ccc(OC(F)(F)F)cc2)n1` [Entry 15, N-[2-(2-methylphenyl)ethyl]-2-({[({4-[(trifluoromethyl)oxy]phenyl}oxy)acetyl]amino}methyl)-1,3-thiazole-4-carboxamide]: the IC50 was less than 50 nM. For `O=C(COc1ccc(OC(F)(F)F)cc1)NCc1nc(C(=O)NCc2cc(F)ccc2F)cs1` [Entry 61, N-[(2,5-difluorophenyl)methyl]-2-({[({4-[(trifluoromethyl)oxy]phenyl}oxy)acetyl]amino}methyl)-1,3-thiazole-4-carboxamide] the value was 50 to 500 nM; for `CC(C)c1ccc(OCC(=O)NCc2nc(C(=O)NCCc3cccc(Cl)c3)cs2)cc1` [Entry 72, N-[2-(3-chlorophenyl)ethyl]-2-{[({[4-(1-methylethyl)phenyl]oxy}acetyl)amino]methyl}-1,3-thiazole-4-carboxamide], 50 to 500 nM; for `O=C(COc1ccc(OC(F)(F)F)cc1)NCc1nc(C(=O)NC2CCN(Cc3ccccc3)CC2)cs1` [Entry 84, N-[1-(phenylmethyl)piperidin-4-yl]-2-({[({4-[(trifluoromethyl)oxy]phenyl}oxy)acetyl]amino}methyl)-1,3-thiazole-4-carboxamide], 50 to 500 nM.

With `CC(C)[C@H](C)NC(=O)c1csc(CNC(=O)COc2ccc(OC(F)(F)F)cc2)n1` [Entry 153, N-[(1S)-1,2-dimethylpropyl]-2-({[({4-[(trifluoromethyl)oxy]phenyl}oxy)acetyl]amino}methyl)-1,3-thiazole-4-carboxamide], the IC50 lay in the range of 50 to 500 nM.

For `CCCCC(CC)COCCCNC(=O)c1csc(CNC(=O)COc2ccc(OC(F)(F)F)cc2)n1` (stereo not shown) [Entry 100, N-{3-[(2-ethylhexyl)oxy]propyl}-2-({[({4-[(trifluoromethyl)oxy]phenyl}oxy)acetyl]amino}methyl)-1,3-thiazole-4-carboxamide], the IC50 was in the range of 50 to 500 nM. Turning to `Cc1cccc(CCNC(=O)c2csc(CNC(=O)COc3ccc(OC(F)(F)F)cc3)n2)c1` [Entry 21, N-[2-(3-methylphenyl)ethyl]-2-({[({4-[(trifluoromethyl)oxy]phenyl}oxy)acetyl]amino}methyl)-1,3-thiazole-4-carboxamide], the IC50 was less than 50 nM. For `COc1ccccc1CNC(=O)c1csc(CNC(=O)COc2ccc(C(C)(C)C)cc2)n1` [Entry 22, 2-{[({[4-(1,1-dimethylethyl)phenyl]oxy}acetyl)amino]methyl}-N-{[2-(methyloxy)phenyl]methyl}-1,3-thiazole-4-carboxamide], the IC50 was less than 50 nM. As for `COc1ccccc1CCNC(=O)c1csc(CNC(=O)COc2ccc(OC(F)(F)F)cc2)n1` [Entry 80, N-{2-[2-(methyloxy)phenyl]ethyl}-2-({[({4-[(trifluoromethyl)oxy]phenyl}oxy)acetyl]amino}methyl)-1,3-thiazole-4-carboxamide], the IC50 lay in the range of 50 to 500 nM. With `O=C(COc1ccc(OC(F)(F)F)cc1)NCc1nc(C(=O)N2CCC3CCCCC3C2)cs1` (stereo not shown) [Entry 294, N-{[4-(octahydroisoquinolin-2(1H)-ylcarbonyl)-1,3-thiazol-2-yl]methyl}-2-({4-[(trifluoromethyl)oxy]phenyl}oxy)acetamide], the IC50 was 500 to 2000 nM. As for `NC(=O)C(NC(=O)c1csc(CNC(=O)COc2ccc(OC(F)(F)F)cc2)n1)c1ccccc1` (stereo not shown) [Entry 54, N-(2-amino-2-oxo-1-phenylethyl)-2-({[({4-[(trifluoromethyl)oxy]phenyl}oxy)acetyl]amino}methyl)-1,3-thiazole-4-carboxamide], the IC50 lay in the range of 50 to 500 nM.

For the molecule `C[C@H](NC(=O)c1csc(CNC(=O)COc2ccc(OC(F)(F)F)cc2)n1)C1CCCCC1` [Entry 95, N-[(1S)-1-cyclohexylethyl]-2-({[({4-[(trifluoromethyl)oxy]phenyl}oxy)acetyl]amino}methyl)-1,3-thiazole-4-carboxamide], the IC50 lay in the range of 50 to 500 nM. `CCc1ccc(NC(=O)NCc2nc(C(=O)NCc3cccc(OC)c3OC)cs2)cc1` [Entry 134, N-{[2,3-bis(methyloxy)phenyl]methyl}-2-[({[(4-ethylphenyl)amino]carbonyl}amino)methyl]-1,3-thiazole-4-carboxamide]: the IC50 was in the range of 50 to 500 nM. Turning to `O=C(COc1ccc(OC(F)(F)F)cc1)NCc1nc(C(=O)NCc2c(Cl)cccc2Oc2ccccc2)cs1` [Entry 163, N-{[2-chloro-6-(phenyloxy)phenyl]methyl}-2-({[({4-[(trifluoromethyl)oxy]phenyl}oxy)acetyl]amino}methyl)-1,3-thiazole-4-carboxamide], the IC50 is 50 to 500 nM.

Regarding `COc1cccc(CCNC(=O)c2coc(CNC(=O)COc3ccc(OC(F)(F)F)cc3)n2)c1` [Entry 234, N-{2-[3-(methyloxy)phenyl]ethyl}-2-({[({4-[(trifluoromethyl)oxy]phenyl}oxy)acetyl]amino}methyl)-1,3-oxazole-4-carboxamide], the IC50 lay in the range of 500 to 2000 nM.

Take `O=C(COc1ccc(OC(F)(F)F)cc1)NCc1nc(C(=O)Nc2ccc(C(=O)O)c(O)c2)cs1` [Entry 142, 2-hydroxy-4-({[2-({[({4-[(trifluoromethyl)oxy]phenyl}oxy)acetyl]amino}methyl)-1,3-thiazol-4-yl]carbonyl}amino)benzoic acid]: the IC50 was in the range of 50 to 500 nM.

For the molecule `CSc1ccc(NC(=O)NCc2nc(C(=O)NCCc3cccc(Cl)c3)cs2)cc1` [Entry 173, N-[2-(3-chlorophenyl)ethyl]-2-{[({[4-(methylthio)phenyl]amino}carbonyl)amino]methyl}-1,3-thiazole-4-carboxamide], the IC50 was 50 to 500 nM. As to `CCC(CC)CNC(=O)c1csc(CNC(=O)COc2ccc(OC(F)(F)F)cc2)n1` [Entry 132, N-(2-ethylbutyl)-2-({[({4-[(trifluoromethyl)oxy]phenyl}oxy)acetyl]amino}methyl)-1,3-thiazole-4-carboxamide], the IC50 was in the range of 50 to 500 nM. For the molecule `O=C(COc1ccc(OC(F)(F)F)cc1)NCc1nc(C(=O)NCC2CCCCC2)cs1` [Entry 172, N-(cyclohexylmethyl)-2-({[({4-[(trifluoromethyl)oxy]phenyl}oxy)acetyl]amino}methyl)-1,3-thiazole-4-carboxamide], the IC50 lay in the range of 50 to 500 nM.

Consider `O=C(COc1ccc(OC(F)(F)F)cc1)NCc1nc(C(=O)NCCc2ccncc2)co1` [Entry 219, N-(2-pyridin-4-ylethyl)-2-({[({4-[(trifluoromethyl)oxy]phenyl}oxy)acetyl]amino}methyl)-1,3-oxazole-4-carboxamide], for which the IC50 is 500 to 2000 nM.

As for `CCOC(=O)N1CCC(NC(=O)c2csc(CNC(=O)COc3ccc(OC(F)(F)F)cc3)n2)CC1` [Entry 283, ethyl 4-({[2-({[({4-[(trifluoromethyl)oxy]phenyl}oxy)acetyl]amino}methyl)-1,3-thiazol-4-yl]carbonyl}amino)piperidine-1-carboxylate], the IC50 lay within 500 to 2000 nM. Regarding `CCC(CC)NC(=O)c1csc(CNC(=O)COc2ccc(OC(F)(F)F)cc2)n1` [Entry 171, N-(1-ethylpropyl)-2-({[({4-[(trifluoromethyl)oxy]phenyl}oxy)acetyl]amino}methyl)-1,3-thiazole-4-carboxamide], the IC50 was in the range of 50 to 500 nM. For the molecule `O=C(COc1ccc(OC(F)(F)F)cc1)NCc1nc(C(=O)NCCSCc2c(Cl)cccc2Cl)cs1` [Entry 93, N-(2-{[(2,6-dichlorophenyl)methyl]thio}ethyl)-2-({[({4-[(trifluoromethyl)oxy]phenyl}oxy)acetyl]amino}methyl)-1,3-thiazole-4-carboxamide], the IC50 fell in the range of 50 to 500 nM. For the molecule `O=C(COc1ccc(OC(F)(F)F)cc1)NCc1nc(C(=O)NCc2ccccn2)cs1` [Entry 190, N-(pyridin-2-ylmethyl)-2-({[({4-[(trifluoromethyl)oxy]phenyl}oxy)acetyl]amino}methyl)-1,3-thiazole-4-carboxamide], the IC50 was 50 to 500 nM.

As to `O=C(COc1ccc(OC(F)(F)F)cc1)NCc1nc(C(=O)NCc2ccccc2Cl)co1` [Entry 261, N-[(2-chlorophenyl)methyl]-2-({[({4-[(trifluoromethyl)oxy]phenyl}oxy)acetyl]amino}methyl)-1,3-oxazole-4-carboxamide], the IC50 fell in the range of 500 to 2000 nM. For `O=C(COc1ccc(OC(F)(F)F)cc1)NCc1nc(C(=O)NCCc2ccc(Br)cc2)cs1` [Entry 90, N-[2-(4-bromophenyl)ethyl]-2-({[({4-[(trifluoromethyl)oxy]phenyl}oxy)acetyl]amino}methyl)-1,3-thiazole-4-carboxamide] the value was 50 to 500 nM.

For the molecule `O=C(COc1ccc(OC(F)(F)F)cc1)NCc1nc(C(=O)NCCc2ccccc2Cl)co1` [Entry 273, N-[2-(2-chlorophenyl)ethyl]-2-({[({4-[(trifluoromethyl)oxy]phenyl}oxy)acetyl]amino}methyl)-1,3-oxazole-4-carboxamide], the IC50 was in the range of 500 to 2000 nM. As to `O=C(COc1ccc(OC(F)(F)F)cc1)NCc1nc(C(=O)NCc2cccc(F)c2)cs1` [Entry 127, N-[(3-fluorophenyl)methyl]-2-({[({4-[(trifluoromethyl)oxy]phenyl}oxy)acetyl]amino}methyl)-1,3-thiazole-4-carboxamide], the IC50 lay within 50 to 500 nM. Take `O=C(COc1ccc(OC(F)(F)F)cc1)NCc1nc(C(=O)NCc2cccc(C(F)(F)F)c2F)cs1` [Entry 158, N-{[2-fluoro-3-(trifluoromethyl)phenyl]methyl}-2-({[({4-[(trifluoromethyl)oxy]phenyl}oxy)acetyl]amino}methyl)-1,3-thiazole-4-carboxamide]: the IC50 lay in the range of 50 to 500 nM.

As usually defined, the IC50 is the concentration needed to halve the response being measured.

(Values after US7973061B2, “Anaplastic lymphoma kinase modulators and methods of use” (Exelixis, Inc., priority 2004, dated 2011).)
